Where “and” joins values, the source holds several entries; their conditions need not be identical. Equal entries are not always repeated.

The test system of this test is 415267-285-R-J2-PDC complex spheroid viability. The experiment in a line: Anticancer human tumor 415267-285-R-J2-PDC patient-derived breast carcinoma cell line growth inhibition [POLQ]. The note with it: for viability, T/C: stronger effect = lower value. How it is done:
Multicellular complex tumor spheroid response to Polymerase (POL) inhibitors (novobiocin, ART-558, RP6685) in combination with a variety of drugs and investigational agents in selected tumor cell lines
The POL inhibitors (novobiocin, ART-558, and RP6685) were evaluated both individually and in combination with standard of care and investigational anticancer small molecules within a complex spheroid model of solid tumors. . Complex spheroids include a stromal component modeled by human endothelial cells (HUVEC) and fibroblasts modeled by human mesenchymal stem cells (MSCs). The concentration ranges selected for each drug and investigational agent were based upon clinically achievable concentrations if the clinical Cmax of the agent was known.
Compounds. The drugs and investigational agents: novobiocin (NSC847541), ART-558 (NSC835418), RP-6685 (NSC848927), peposertib (NSC802822), ceralasertib (NSC780249), elimusertib (NSC800525), camonsertib (NSC841442), AZD-1390 (NSC803789), olaparib (NSC753686), talazoparib (NSC767125), rucaparib (NSC756644), sotorasib (NSC818433), MRTX-1133 (NSC836407), SN-38 (NSC673596), topotecan (NSC609699), epotoside (NSC141540), doxorubicin (NSC123127), gemcitabine (NSC613327), 5-fluorouracil (NSC19893), paclitaxel (NSC125973), vemurafenib (NSC761431), MSA-2 (NSC828583), SN-011 (NSC837082), adavosertib (NSC754352), prexasertib (NSC758257), carboplatin (NSC241240) and oxaliplatin (NSC266046), were obtained from the National Cancer Institute (NCI) Developmental Therapeutics Program Chemical Repository (21). The FDA-approved anticancer drug set is available from the Developmental Therapeutics Program at https://dtp.cancer.gov/organization/dscb/obtaining/. […] The stock solutions were prepared in dimethyl sulfoxide (DMSO, Sigma-Aldrich, St. Louis, MO, cat. D2650), except for the platinum compounds which were prepared in saline (Quality Biological, Gaithersburg, MD, cat. 114-055-101), at 800-fold the tested concentration and stored at -70 degrees C prior to their use. All drugs and investigational agents were tested over a range starting from a high concentration at or near the clinical Cmax and decreasing in half-log increments. If the clinical Cmax for an agent had not been determined, the highest concentration tested was 10 microM, except for SN-38, which was tested at a high concentration of 1 microM.
Cell Culture. All cells were maintained in an incubator at 37 degrees C and 5% CO2 with 95% humidity. The PDC lines were cultured according to standard operating procedures established by the NCI PDMR (https://pdmr.cancer.gov). Table 3 of the manuscript, lists the cell lines along with the number of the three cell types plated to form the mct-spheroids and media for tumor cell growth. After thawing, all PDC lines, except 997537-175-T-J1-PDC and 415267-285-R-J2-PDC, were cultured in Matrigel-coated flasks prepared with a working solution of 1X Ham's F-12 nutrient mix, without supplementation (Thermo Fisher Scientific, cat. 11765054), 100 U/mL penicillin-streptomycin (Thermo Fisher Scientific, cat. 15140122), and 2.5% Matrigel (Corning Inc., Corning, NY, cat. 354248) for the first three passages. The two PDC lines 997537-175-T-J1-PDC and 415267-285-R-J2-PDC were cultured on uncoated flasks. The 857933-349-R-J2-PDC line was cultured in 6C/Colon 1B media containing advanced DMEM/F-12 (Thermo Fisher Scientific, cat. 12634028), 10 mM HEPES (Thermo Fisher Scientific, cat. 15630080), 1X GlutaMAX supplement (Thermo Fisher Scientific, cat. 35050061), 0.1 mg/mL primocin (InvivoGen, San Diego, CA, cat. ant-pm-2), 10% defined fetal bovine serum, heat inactivated (HyClone Laboratories Inc., Logan, UT, cat. SH30070.03HI), 50% L-WRN conditioned media (ATCC, cat. CRL-3276), 1.25 mM N-Acetyl-L-cysteine (Sigma-Aldrich, cat. A9165), 10 mM nicotinamide (Sigma-Aldrich, cat. N0636), 1X B-27 supplement (Thermo Fisher Scientific, cat. 17504044), 1X N-2 supplement (Thermo Fisher Scientific, cat. […]
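Further: spheroids exposed to compounds for one week before readout.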
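Wherever viability, T/C is given: luminescence used as stand-in measure of viable cells.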

On to `CC1COCCN1c1cc(C2(S(C)(=N)=O)CC2)nc(-c2ccnc3[nH]ccc23)n1` (configuration not stated) + Nc1ccc(C#CCN(C(=O)Cc2ncc(C(F)(F)F)cc2C(F)(F)F)c2ccc(F)cc2)nn1, for which the IC50 (commonly the point on the concentration scale where inhibition reaches its midpoint) (curve of first compound, second compound 0.0316 µM) was determined as 541 nM; the IC50 (curve of first compound, second compound 0.1 µM) was 514 nM; the IC50 (curve of first compound, second compound 0.316 µM) came to 592 nM; the IC50 (curve of first compound, second compound 1 µM) stood at 537 nM; the IC50 (curve of first compound, second compound 3.16 µM) is 559 nM; the IC50 (curve of first compound, second compound 10 µM) came out at 527 nM. The viability, T/C (usually the ratio of treated to control) was 106% (second compound 0.0316 µM, first compound 0.0316 µM); 113% (second compound 0.0316 µM, first compound 0.1 µM); 81.3% (second compound 0.0316 µM, first compound 0.316 µM); 14.2% (second compound 0.0316 µM, first compound 1 µM); 5.34% (second compound 0.0316 µM, first compound 3.16 µM); 3.83% (second compound 0.0316 µM, first compound 10 µM). Moreover, the viability, T/C was 94.3% (second compound 0.1 µM, first compound 0.0316 µM); 108% (second compound 0.1 µM, first compound 0.1 µM); 75% (second compound 0.1 µM, first compound 0.316 µM); 15.4% (second compound 0.1 µM, first compound 1 µM); 5.4% (second compound 0.1 µM, first compound 3.16 µM); 3.91% (second compound 0.1 µM, first compound 10 µM). For the same compound, the viability, T/C was 104% (second compound 0.316 µM, first compound 0.0316 µM); 101% (second compound 0.316 µM, first compound 0.1 µM); 92.6% (second compound 0.316 µM, first compound 0.316 µM); 14.3% (second compound 0.316 µM, first compound 1 µM); 5.2% (second compound 0.316 µM, first compound 3.16 µM); 3.58% (second compound 0.316 µM, first compound 10 µM). For the same compound, the viability, T/C was 104% (second compound 1 µM, first compound 0.0316 µM); 95% (second compound 1 µM, first compound 0.1 µM); 81.9% (second compound 1 µM, first compound 0.316 µM); 12.5% (second compound 1 µM, first compound 1 µM); 6.5% (second compound 1 µM, first compound 3.16 µM); 2.93% (second compound 1 µM, first compound 10 µM). Also, the viability, T/C was 102% (second compound 3.16 µM, first compound 0.0316 µM); 104% (second compound 3.16 µM, first compound 0.1 µM); 87.3% (second compound 3.16 µM, first compound 0.316 µM); 12% (second compound 3.16 µM, first compound 1 µM); 5.15% (second compound 3.16 µM, first compound 3.16 µM); 4.26% (second compound 3.16 µM, first compound 10 µM). The viability, T/C is 111% (second compound 10 µM, first compound 0.0316 µM); 91.2% (second compound 10 µM, first compound 0.1 µM); 80.8% (second compound 10 µM, first compound 0.316 µM); 11.4% (second compound 10 µM, first compound 1 µM); 5.02% (second compound 10 µM, first compound 3.16 µM); 4.34% (second compound 10 µM, first compound 10 µM).
As for `C=CCn1c(=O)c2cnc(Nc3ccc(N4CCN(C)CC4)cc3)nc2n1-c1cccc(C(C)(C)O)n1`, the viability, T/C runs as follows: (compound 0.00316 µM) 93.5% and 109% and 105%; (compound 0.01 µM) 94% and 116% and 97.7%; (compound 0.0316 µM) 106% and 108% and 97.9%; (compound 0.1 µM) 99.5% and 96.9% and 95.5%; (compound 0.316 µM) 46.4% and 73.5% and 68.8%; (compound 1 µM) 7.6% and 7.2% and 5.6%. For the setting “curve of compound”, the IC50 is 292 nM and 471 nM and 446 nM.
Consider `CC1COCCN1c1cc(C2(S(C)(=N)=O)CC2)nc(-c2ccnc3[nH]ccc23)n1` (configuration not stated), for which the viability, T/C is 96.2% and 107% and 97.5% (compound 0.0316 µM); 93.1% and 103% and 94.9% (compound 0.1 µM); 69.9% and 86.8% and 66.4% (compound 0.316 µM); 12.1% and 15.8% and 13% (compound 1 µM); 7.35% and 7.07% and 7.38% (compound 3.16 µM); 5.4% and 3.22% and 5.26% (compound 10 µM). In addition, the IC50 (curve of compound) was 470 nM and 575 nM and 450 nM.
Take `COc1cc2cc(C(=O)CCC(=O)O)sc2cc1OC`: the viability, T/C is 99.2% and 104% and 92.9% (compound 0.0316 µM); 101% and 104% and 90.8% (compound 0.1 µM); 93.2% and 88% and 110% (compound 0.316 µM); 104% (2×) and 99.6% (compound 1 µM); 94.7% and 99.9% and 99.6% (compound 3.16 µM); 111% and 99.6% and 109% (compound 10 µM). In addition, the IC50 (curve of compound) was more than 10000 nM.
As to `CCCS(=O)(=O)Nc1ccc(F)c(C(=O)c2c[nH]c3ncc(-c4ccc(Cl)cc4)cc23)c1F`, the viability, T/C by setting is: (compound 0.0316 µM) 96.6% and 91.5% and 93.2%; (compound 0.1 µM) 96.8% and 99.3% and 96.4%; (compound 0.316 µM) 104% and 98% and 94.8%; (compound 1 µM) 107% (2×) and 100%; (compound 3.16 µM) 88.1% and 98.2% and 98%; (compound 10 µM) 86.5% and 87.4% and 72%. For the same compound, the IC50 (curve of compound) is more than 10000 nM.
On to `O=C(c1cc(Cc2n[nH]c(=O)c3ccccc23)ccc1F)N1CCN(C(=O)C2CC2)CC1`, for which the viability, T/C was 92.7% and 95.5% and 108% (compound 0.0316 µM); 109% and 91.4% and 105% (compound 0.1 µM); 86.8% and 95.3% and 97.5% (compound 0.316 µM); 87.8% and 94.8% and 102% (compound 1 µM); 95.3% and 95.4% and 109% (compound 3.16 µM); 76.9% and 90.6% and 102% (compound 10 µM). The IC50 (curve of compound) was more than 10000 nM.

These data come from PubChem BioAssay AID1963847 (Molecular Pharmacology Branch, DTP, NCI, 2024).
